“And” between values parts separate entries of the source, which are not always exact repeats. Equal values may be shown once. Read-outs that look alike come from different tables or passages of the source.
Columns and labels:
GABAA receptors = experiment: Spontaneous IPSC / miniature GABA current amplitude, whole-cell patch recording from cerebellar molecular layer interneurons; format: cell-based
Description: Bis-CNB-GABA was applied in vitro. Currents were recorded from cerebellar interneurons. […] FIG. 35 (right) illustrates response traces before and after application of bis-CNB-GABA. FIG. 35 (left) illustrates summary of data. FIG. 36 illustrates effects of 1 mM bis-CNB-GABA on spontaneously evoked miniature glutamate and miniature GABA currents in cerebellar interneuron.
The biological properties of our synthetic bis-CNB-GABA were evaluated using whole-cell patch recording from cerebellar molecular layer interneurons.
FIGS. 43A-43E illustrate quantification of unwanted effects of caged GABA. Referring to FIGS. 43A-43E, first, changes in whole-cell holding current under voltage clamp were monitored while caged GABA compounds were applied by bath application or by local perfusion as per Civillico, E. F.; Shoham, S.; O'Connor, D. H.; Sarkisov, D. V.; Wang, S. S.-H. Cold Spring Harb. Protoc. 2012, which is incorporated herein by reference as if fully set forth). FIG. 43A illustrates voltage-clamp recordings from cerebellar interneurons exposed to caged GABA. Referring to this figure, upper trace corresponds to 1 mM bis-CNB-GABA; middle trace corresponds to 0.1 mM mono-O-CNB-GABA; bottom trace corresponds to 1 mM DPNI-GABA. Referring to FIG. 43A, (right) expanded traces illustrating the detailed effects on steady-state holding current and fluctuations in holding current were observed. FIG. 43B illustrates effects of caged GABA on spontaneous IPSCs and excitatory postsynaptic currents (EPSCs). Referring to FIG. 43B, IPSCs and EPSCs were identified and separated based on kinetic criteria. FIG. 43B (left) illustrates box plots of spontaneous postsynaptic current amplitudes in control conditions and in the presence of 1 mM bis-CNB-GABA. Referring to FIG. 43B (left), boxes show interquartile range and whiskers show full range of values. FIG. 43B (right) illustrates individual traces (gray) and average (block) of detected spontaneous IPSCs and EPSCs. FIG. 43C illustrates dependence of spontaneous IPSC amplitude on bis-CNB-GABA concentration. […] FIG. 43D illustrates comparison of effects of mono-O-CNB-GABA (0.1 mM) and bis-CNB-GABA (1.0 mM, except for 0.4 mM for IPSCs) on spontaneous IPSC amplitude, standard deviation of holding current (noise), and holding current (Ihold). FIG. 43E illustrates spontaneous EPSC size was unaffected by bis-CNB-GABA at all concentrations tested. Referring to FIGS. 43A and 43D, under these conditions, mono-O-CNB-GABA (0.1 mM) led to increases of 66±47 pA (mean±SD, n=6) in inward holding current at −60 mV (Ihold). This inward current presumably arises either via indirectly evoked increases in excitation or from direct activation of GABAA receptors (by residual free GABA in the caged compound solution or by mono-O-CNB-GABA, which may itself have partial agonist activity). See Dellal., S. S.; Luo, R.; Otis, T. S. J. Neurophysiol., 2012, 107, 2958-2970, which is incorporated herein by reference as if fully set forth.
Referring to FIG. 43B, the effects of bis-CNB-GABA on spontaneous IPSCs was next measured. […] Referring to FIG. 43B, in contrast, addition of bis-CNB-GABA served to reduce GABA current amplitudes by approximately one-third (FIG. 43B, top; 0.4 to 2.0 mM; ratio of amplitudes during drug/control: 0.68±0.17, n=14). […] This IC50 is, in fact, a lower bound; the material tested was crude product, which may contain minute amounts of mono-CNB-GABA.

cerebellar interneurons = experiment: Whole-cell holding current under voltage clamp in cerebellar interneurons exposed to caged GABA; format: cell-based
Excerpt: FIGS. 43A-43E illustrate quantification of unwanted effects of caged GABA. Referring to FIGS. 43A-43E, first, changes in whole-cell holding current under voltage clamp were monitored while caged GABA compounds were applied by bath application or by local perfusion as per Civillico, E. F.; Shoham, S.; O'Connor, D. H.; Sarkisov, D. V.; Wang, S. S.-H. Cold Spring Harb. Protoc. 2012, which is incorporated herein by reference as if fully set forth). FIG. 43A illustrates voltage-clamp recordings from cerebellar interneurons exposed to caged GABA. Referring to this figure, upper trace corresponds to 1 mM bis-CNB-GABA; middle trace corresponds to 0.1 mM mono-O-CNB-GABA; bottom trace corresponds to 1 mM DPNI-GABA. Referring to FIG. 43A, (right) expanded traces illustrating the detailed effects on steady-state holding current and fluctuations in holding current were observed. FIG. 43B illustrates effects of caged GABA on spontaneous IPSCs and excitatory postsynaptic currents (EPSCs). Referring to FIG. 43B, IPSCs and EPSCs were identified and separated based on kinetic criteria. FIG. 43B (left) illustrates box plots of spontaneous postsynaptic current amplitudes in control conditions and in the presence of 1 mM bis-CNB-GABA. Referring to FIG. 43B (left), boxes show interquartile range and whiskers show full range of values. FIG. 43B (right) illustrates individual traces (gray) and average (block) of detected spontaneous IPSCs and EPSCs. FIG. 43C illustrates dependence of spontaneous IPSC amplitude on bis-CNB-GABA concentration. […]
Referring to FIG. 43D, in contrast, application of bis-CNB-GABA (raw product, 0.4 to 2.0 mM) evoked no detectable change in the holding current (ratio of holding current drug/control=1.0±0.3, n=14, p=0.7, Mann-Whitney test) or in its standard deviation, which is a measure of steady-state channel noise (from 3.0±0.5 to 3.2±0.8 pA, n=14, p=0.3) measured during periods of no spontaneous currents. […]

physchem = format: physicochemical; conditions: for rate of spontaneous photoproduct / GABA production: aqueous buffer, 23° C., 12 mM, pH 7.4, fluorescent room lights, first 8 days
Description: The hydrolytic stability of bis-CNB-GABA under normal handling conditions was examined. Accordingly, we prepared samples of bis-CNB-GABA and mono-O-CNB-GABA were prepared in aqueous buffer (23° C., 12 mM, pH=7.4), stored the samples under fluorescent room lights, and determined accumulation of deprotected GABA at 1-day intervals.
FIGS. 44A-44B illustrate accumulation of GABA in ambient room light. FIG. 44A illustrates 1H NMR data used to quantify GABA accumulation. Top, bis-CNB-GABA before light exposure. Arrows denote methylene peaks of bis-CNB-GABA. Peaks at ˜3.45 ppm and ˜3.2 ppm in each spectrum correspond to dimethoxyethane, used as an internal standard. Bottom, The teal overlay indicates the post-photolysis spectrum of bis-CNB-GABA after 17 days of exposure to ambient fluorescent light. Arrows denote the two visible peaks corresponding to a combination of GABA and mono-N-CNB-GABA photoproducts. Note the lack of extraneous peaks in the 0-4 ppm range after light exposure. The dominant final photoproduct of bis-CNB-GABA was GABA, as identified using ^1H NMR. FIG. 44A illustrates 1H NMR data used to quantify GABA accumulation. Referring to this figure (top), bis-CNB-GABA before light exposure. Arrows denote methylene peaks of bis-CNB-GABA. Still referring to FIG. 44A, peaks at ˜3.45 ppm and ˜3.2 ppm in each spectrum correspond to dimethoxyethane, used as an internal standard. Still referring to FIG. 44A (bottom), the teal overlay indicates the post-photolysis spectrum of bis-CNB-GABA after 17 days of exposure to ambient fluorescent light. Arrows denote the two visible peaks corresponding to a combination of GABA and mono-N-CNB-GABA photoproducts. The lack of extraneous peaks in the 0-4 ppm range was observed after light exposure. The combined amount of mono-decaging (N-CNB-GABA) and double-decaging (GABA) photoproduct was quantified using the integrated multiplet at 2.15 ppm, with dimethoxyethane (singlet peaks at 3.20 and 3.45 ppm) as a standard.

[1] = 1994, cited from earlier work

## O=C(CCCNC(C(=O)O)c1ccccc1[N+](=O)[O-])OC(C(=O)O)c1ccccc1[N+](=O)[O-] (centres unmarked) [bis-CNB-GABA, 2-((4-(Carboxy(2-nitrophenyl)methoxy)-4-oxobutyl)amino)-2-(2-nitrophenyl)acetic acid]
GABAA receptors
  concentration generating 33% reduction in response: 1 mM
GABAA receptors; 1 mM
  effects on holding current, IPSCs, or EPSCs: minimal or no effects
GABAA receptors; 1 mM, cerebellar interneuron
  decrease in miniature GABA response amplitude / reduction of GABA currents: ~33%
GABAA receptors; 0.4 to 2.0 mM, n=14
  ratio of GABA current (spontaneous IPSC) amplitudes during drug/control: 0.68±0.17
GABAA receptors; FIG. 43C, read-out: KD of fit, dependence of spontaneous IPSC amplitude on concentration
  Kd: 2500 ± 200 µM
GABAA receptors; Table 1, calculated from q=[j]/[j]+IC50, read-out: IC50
  IC50: 2000 µM
GABAA receptors; Table 1, calculated, q=0.33
  IC33: 1.0
GABAA receptors; Table 2, the data herein, read-out: IC50 in blocking synaptic GABAA currents
  IC50: ≥ 2500 µM
GABAA receptors; during bis-CNB-GABA application, control 0.44±0.13 ms
  10-90% rise time of IPSCs: 0.44±0.11 ms
GABAA receptors; read-out: estimated IC50 from concentration-dependence of the reduction of spontaneous IPSC amplitude, crude product, stated to be a lower bound
  IC50: ≥ 2500 µM
GABAA receptors; submillimolar concentrations
  antagonist activity at submillimolar concentrations: virtually no antagonist activity
GABAA receptors; vs CDNI-GABA
  fold less antagonistic binding compared to CDNI-GABA: 4 fold
GABAA receptors; vs DPNI-GABA
  fold less antagonism compared to DPNI-GABA: 4 fold
GABAA receptors; vs mono-CNB-GABA
  fold lower affinity / reduction of antagonism compared to mono-caged analog: 70 fold and 100 fold
Cerebellar interneurons; 0.4 to 2.0 mM, control 3.0±0.5 pA, n=14
  standard deviation of holding current (steady-state channel noise): 3.2±0.8 pA
Cerebellar interneurons; raw product, 0.4 to 2.0 mM, n=14
  ratio of holding current drug/control: 1.0±0.3
physchem
  rate of spontaneous photoproduct / GABA production: 1.5±0.1 %/day
physchem; buffer, pH 7.4
  half-life at 12 mM: 98 days
physchem; during a week in the light
  accumulation of GABA: less than 1%
  estimated production of N-CNB-GABA: 10%
[1]; N-position, Wieboldt et al.
  dark reaction time: 1.5 ms

## NCCCC(=O)OC(C(=O)O)c1ccccc1[N+](=O)[O-] (centres unmarked) [mono-CNB-GABA]
GABAA receptors; 1 mM
  effect on rate of spontaneous IPSCs: dramatic decrease
Cerebellar interneurons; 0.1 mM, mean±SD, n=6
  increase in inward holding current at −60 mV (Ihold): 66±47 pA
physchem
  rate of spontaneous photoproduct / GABA production: 1.0±0.2 %/day
physchem; buffer, pH 7.4
  extrapolated half-life t1/2: 138 days
[1]; Gee et al.
  uncaging speed: microsecond range
